This is an account of results in ChEMBL document CHEMBL1141624, “Discovery of small molecule benzimidazole antagonists of the chemokine receptor CXCR3” (Bioorg Med Chem Lett, 2008).

The target of series [1] is T1, C-X-C chemokine receptor type 3 (Homo sapiens, UniProt P49682).
T1 sequence (P49682 whole entry): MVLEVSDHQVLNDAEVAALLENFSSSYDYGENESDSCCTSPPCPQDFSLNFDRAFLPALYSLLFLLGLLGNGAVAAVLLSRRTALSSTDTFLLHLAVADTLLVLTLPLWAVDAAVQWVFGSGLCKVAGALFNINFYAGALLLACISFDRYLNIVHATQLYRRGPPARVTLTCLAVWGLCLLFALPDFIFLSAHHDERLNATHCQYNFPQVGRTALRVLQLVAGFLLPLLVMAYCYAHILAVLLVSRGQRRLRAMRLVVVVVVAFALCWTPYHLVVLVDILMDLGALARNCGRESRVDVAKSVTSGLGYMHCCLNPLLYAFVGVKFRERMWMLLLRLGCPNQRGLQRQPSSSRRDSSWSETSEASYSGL
Put plainly: Displacement of [125]CXCL10 from human CXCR3 expressed in CHO cells. It is filed as cell-based.

Series [2] concerns the target T1, C-X-C chemokine receptor type 3. Put plainly: Antagonist activity at human CXCR3 expressed in CHO cells by FLIPR-based calcium mobilization assay. The series is classed as functional, cell-based. On the technique in general: Calcium assays in cells follow changes in intracellular calcium, usually with a dye or a luminescent sensor.
Series [3] can be described thus: Half life in SJL mouse at 20 mg/kg, po. As to conditions: in vivo. The series is classed as ADME, organism-based. Also noted: dose 20 mg/kg, route oral.
Series [4] is described as follows: Clearance in SJL mouse at 10 mg/kg, po and 5 mg/kg, iv. It is filed as ADME, organism-based. As to conditions: in vivo.
Series [5] in a line: Aqueous solubility of the compound. As to conditions: buffer. The series is classed as physicochemical.
In another series the test system is Liver microsomes. Put plainly: Stability in rat liver microsome. The series is classed as ADME.
Series [6] can be described thus: Protein binding in rat plasma. Conditions: read-out: PPB (converted). The series is classed as ADME, cell-free.
Series [7] in a line: Bioavailability in SJL mouse at 20 mg/kg, po. The series is classed as ADME, organism-based. Conditions: in vivo.

Structures are written as SMILES. ≈ marks a conversion by molar mass, not a printed value. Bounds are passed on as bounds.

Turning to `CCCc1cccc2c1n(C)c(=N)n2CC(=O)c1ccc(Cl)cc1`, the IC50 in series [1] is 0.5 µM; in series [2] it was 0.4 µM.

With `Cn1c(=N)n(CC(=O)c2ccc(Br)cc2)c2ccccc21`, the IC50 in series [1] was 0.8 µM.

In turn, `Cc1cccc2c1n(C)c(=N)n2CC(=O)c1ccc(Cl)cc1` had a half-life in series [3] of 4.9 h. The same compound showed a clearance in series [4] of 95 mL/min/kg. The same compound came in with a solubility in series [5] of 79 µM (≈ 24.8 µg/mL). Further, the figures for the IC50 in series [1] and in series [2] were 0.1 µM and 0.08 µM, respectively. The same compound had a Stability with Liver microsomes of 49%. Also, in series [6], the fraction unbound is 0.15. Further, the bioavailability in series [7] was determined as 57%.

In series [1], `Cn1c(=N)n(CC(=O)c2ccc(Cl)cc2)c2cccc(Cl)c21` returned an IC50 of 0.3 µM.

For `Cc1ccc2c(c1)n(C)c(=N)n2CC(=O)c1ccc(Cl)cc1`, the 50% inhibitory concentration (IC50) in series [1] came out at 1 µM; in series [2], 5 µM.

The compound `Cn1c(=N)n(CC(=O)c2cccc(Cl)c2)c2ccccc21` yielded an IC50 in series [1] of 16 µM.

`CCc1cccc2c1n(C)c(=N)n2CC(=O)c1ccc(Cl)cc1`: the values for the IC50 in series [1] and in series [2] were 0.03 µM and 0.07 µM, respectively.

In series [1], `Cn1c(=N)n(CC(=O)c2ccc(Cl)c(Cl)c2)c2ccccc21` gave a concentration for half-maximal inhibition (IC50) of 4 µM.

Take `C[S+]([O-])c1nc2ccccc2n1CC(=O)c1ccc([N+](=O)[O-])cc1` (stereo not given): in series [1], the IC50 was 11 µM.

Turning to `CC(=O)c1nc2cc(-c3ccccc3)ccc2n1CC(=O)c1ccc(Br)cc1`, in series [1], the IC50 was above 50 µM.

On to `COc1ccc2c(c1)nc(C(C)=O)n2CC(=O)c1ccc(Br)cc1`, for which the IC50 in series [1] is above 50 µM.

In series [1], `COc1ccc2nc(C(C)=O)n(CC(=O)c3ccc(Br)cc3)c2c1` displayed an IC50 above 50 µM.

In the case of `CC(=O)c1nc2ccccc2n1CC(=O)c1ccccc1`, the 50% inhibitory concentration (IC50) in series [1] is above 100 µM.

Consider `CC(=O)c1nc2ccccc2n1CC(=O)c1ccc(Br)cc1`, for which the half-maximal inhibitory concentration (IC50) in series [1] turned out to be 2 µM.

Consider `Cn1c(=N)n(CC(=O)c2ccc(Cl)cc2)c2ccccc21`, for which the solubility in series [5] is 84 µM (≈ 25.2 µg/mL). The figures for the 50% inhibitory concentration (IC50) in series [1] and in series [2] were 0.8 µM and 9 µM, respectively.

Consider `COc1cccc2c1n(C)c(=N)n2CC(=O)c1ccc(Br)cc1`, for which, in series [1], the 50% inhibitory concentration (IC50) was 0.8 µM.

In the case of `CC(=O)c1nc2ccccc2n1CC(=O)c1ccc([N+](=O)[O-])cc1`, the concentration in solution in series [5] (solubility) was 4.5 µM (≈ 1.45 µg/mL). This compound returned a half-maximal inhibitory concentration (IC50) in series [1] of 3 µM.

Take `Cn1c(=N)n(CCc2ccc(Br)cc2)c2ccccc21`: the IC50 in series [1] worked out at 11 µM.

With `Cn1c(=N)n(C[S+]([O-])c2ccc(Cl)cc2)c2ccccc21` (stereo not given), the IC50 in series [1] amounted to 3 µM.

As to `COCC/N=c1/n(C)c2ccccc2n1CC(=O)c1ccc(Br)cc1`, the concentration for half-maximal inhibition (IC50) in series [1] is 1 µM.

Regarding `CC(O)c1nc2ccccc2n1CC(=O)c1ccc([N+](=O)[O-])cc1` (stereo not given), the IC50 in series [1] turned out to be 20 µM.

With `Cn1c(=N)n(CC(=O)c2ccc(Cl)cc2)c2cccc(C(F)(F)F)c21`, in series [1], the IC50 was 0.7 µM.

Regarding `Cc1ccc2c(c1)n(CC(=O)c1ccc(Cl)cc1)c(=N)n2C`, in series [1], the IC50 is 8 µM.

In series [1], `Cn1c(=N)n(CC(O)c2ccc(Br)cc2)c2ccccc21` (stereo not given) gave a half-inhibitory concentration (IC50) of 40 µM.

On to `Cn1c(=N)n(CCCC(=O)c2ccc(Br)cc2)c2ccccc21`, for which the IC50 in series [1] stood at 6 µM.

As to `CC(=O)c1nc2ccccc2n1CC(=O)c1ccc(C#N)cc1`, the IC50 in series [1] was above 100 µM.

On to `CC(=O)c1nc2ccccc2n1CC(=O)c1ccc(Cl)cc1`, for which the IC50 in series [1] came to 8 µM.

Compound `COc1cccc2c1nc(C(C)=O)n2CC(=O)c1ccc(Br)cc1` had an IC50 in series [1] of 3 µM.

`Cn1c(=N)n(CC(=O)c2ccccc2Cl)c2ccccc21` had an IC50 in series [1] of 22 µM.

In series [1], `CC(=O)c1nc2ccc(-c3ccccc3)cc2n1CC(=O)c1ccc(Br)cc1` had an IC50 above 50 µM.

In series [1], `CC(=O)/N=c1/n(C)c2ccccc2n1CC(=O)c1ccc([N+](=O)[O-])cc1` showed an IC50 of 50 µM.

For `C/N=c1/n(C)c2ccccc2n1CC(=O)c1ccc(Cl)cc1`, the half-inhibitory concentration (IC50) in series [1] was found to be 0.8 µM.

For orientation: IC50 means the concentration at which inhibition is half-maximal. The half-life is the time in which the quantity being followed falls by half. For orientation: solubility means how much of the substance goes into solution per volume. The bioavailability is dose-corrected exposure relative to a reference, in per cent.
